Columns and labels:
[1] = physiological pH; stated as well known; cited from earlier work
human donor corneas = conditions: 2.5 ma ml^−1, Alamar Blue, p<0.01
Description: Epithelial cell/cornea viability was determined using Alamar Blue reagent (5 μg ml^−1) dissolved in PBS. Cells/corneas were incubated with Alamar Blue for 30 minutes and the fluorescence of the solution determined at 570 nm excitation and 585 nm emission (Infinite 200, Tecan). Data for each polymer is presented as percentage viability relative to an untreated control. Each assay was performed in triplicate and data represents the mean±SD from three independent experiments.
The examination of the cytotoxicity was further examined on ex vivo human corneas.

[2] = tested on: Aspergillus flavus ATCC16883; assay: Minimal inhibitory concentration (MIC), A. flavus ATCC16883; format: cell-based; conditions: A. flavus ATCC 16883
Description: (§1) C. albicans cells, laboratory strain SC5314 or ATCC90028, were cultured on solid BHI (Oxoid) medium at 37° C. for 24 hours and stored at 4° C. for up to one month. Prior to experiments, a colony of C. albicans was sub-cultured into liquid BHI medium overnight at 37° C. Overnight cultures of C. albicans were adjusted to an optical density at 600 nm of 0.1 and incubated with Amphotericin polymers, which were serially diluted 1:2 from 2500-2.44 μg/ml, for 16 hours in a 96 well plate. The concentration of polymer at which there was no visible growth was determined to be the MIC. C. albicans (Robin) ATCC200955, C. tropicalis ATCC200956, A. flavus ATCC16883 and F. keratoplasticum ATCC36031 were similarly cultured on solid Sabrauds (Oxoid) medium at 37° C. for 24 hours and stored at 4° C. for up to one month. Prior to experiments, colonies were sub-cultured into liquid Sabrauds medium overnight at 37° C. All liquid cultures were static apart from A. flavus which was incubated shaking at 100 rpm.

[3] = tested on: rabbit limbal epithelial cells; assay: Rabbit limbal epithelial cell viability (Alamar Blue); conditions: p<0.01
Description: Tissue was immersed in 2.5 mg ml^−1 (w/v) dispase II solution in DMEM for 1 hour at 37° C. The limbal rims were subsequently scraped gently using forceps to remove the epithelial cells. The dispase-cell suspension was centrifuged at 200 g for 5 minutes and re-suspended in culture medium containing DMEM: Ham's F12 (1:1) supplemented with 10% foetal calf serum, 100 U ml^−1 penicillin and 100 U ml^−1 streptomycin, 2.5 μg ml^−1 Amp−B, 5 μg ml^−1 insulin and 10 ng ml^−1 epidermal growth factor. Cells were cultured with irradiated 3T3-mouse fibroblasts at a cell density of 2.4×10^4 cells cm^−2 in culture medium. Cells were not used beyond passage 3. For experiments, cells were seeded into 24 well-plates at 5×10^4 cells per well and cultured for 24 hours.
Prior to determining the viability of rabbit limbal epithelial cells, cells were washed 3× with phosphate-buffered saline (PBS, 0.01M, pH 7.4) to remove residual antimicrobials. […] Epithelial cell/cornea viability was determined using Alamar Blue reagent (5 μg ml^−1) dissolved in PBS. Cells/corneas were incubated with Alamar Blue for 30 minutes and the fluorescence of the solution determined at 570 nm excitation and 585 nm emission (Infinite 200, Tecan). Data for each polymer is presented as percentage viability relative to an untreated control. […]

C. albicans ATCC90028 = assay: Minimal inhibitory concentration (MIC), C. albicans ATCC90028; format: cell-based
Description: (§2) C. albicans cells, laboratory strain SC5314 or ATCC90028, were cultured on solid BHI (Oxoid) medium at 37° C. for 24 hours and stored at 4° C. for up to one month. Prior to experiments, a colony of C. albicans was sub-cultured into liquid BHI medium overnight at 37° C.
as §1

C. albicans SC5314 = assay: Minimal inhibitory concentration (MIC), C. albicans SC5314; format: cell-based
Description: as §2, §1

[4] = tested on: Fusarium keratoplasticum ATCC36031; assay: Minimal inhibitory concentration (MIC), F. keratoplasticum ATCC36031; format: cell-based; conditions: F. keratoplasticum ATCC 36031
Description: as §1

[5] = literature range; cited from earlier work
C. tropicalis ATCC200956 = assay: Minimal inhibitory concentration (MIC), C. tropicalis ATCC200956; format: cell-based; conditions: C. tropicalis ATCC200956 (Amp-B non-sensitive); Table 3b
Description: as §1, with “Overnight cultures of C. albicans were adjusted to an optical density at 600 nm of 0.1 and incubated with Amphotericin polymers, which were serially diluted 1:2 from 2500-2.44 μg/ml, for 16 hours in a 96 well plate.” left out

[6] = tested on: C. albicans (Robin) ATCC200955; assay: Minimal inhibitory concentration (MIC), C. albicans ATCC200955; format: cell-based; conditions: C. albicans ATCC200955 (Amp-B non-sensitive); Table 3b
Description: as §1

[7] = from weight based MIC and molar density

Compound: C[C@@H]1[C@H](O)[C@@H](C)/C=C/C=C/C=C/C=C/C=C/C=C/C=C/[C@H](O[C@@H]2O[C@H](C)[C@@H](O)[C@H](N)[C@@H]2O)C[C@@H]2O[C@](O)(C[C@@H](O)C[C@@H](O)[C@H](O)CC[C@@H](O)C[C@@H](O)CC(=O)O[C@H]1C)C[C@H](O)[C@H]2C(=O)O [Amp-B, amphotericin B]
- Solubility in water and saline solution [1]: insoluble
- Loss of corneal viability (human donor corneas): approximately 95%
- Weight based MIC ([2]; Table 3b): 1.5 µg·mL
- Molar MIC [2, 7]: 1800 µM
- Metabolic activity of cells compared with the cell only control ([3]; 100 μg ml^−1, 24 hours): 42.8±13.9%
- Decrease in epithelial cell viability relative to a cell only control ([3]; 1 mg ml^−1, 24 hours): approximately 91.7%
- Weight based MIC (C. albicans ATCC90028; Table 3b): 0.5 µg·mL
- Molar MIC (C. albicans ATCC90028; [7]): 4800 µM
- Weight based MIC (C. albicans SC5314; Table 3b): 0.4 µg·mL
- Molar MIC (C. albicans SC5314; from weight based MIC and molar density of Amp-B groups): 500 µM
- Weight based MIC ([4]; Table 3b): 0.2 µg·mL
- Molar MIC [4, 7]: 250 µM
- MIC for Amp-B [5]: 0.625 to 4 µg/mL
- Weight based MIC (C. tropicalis ATCC200956): >2500 µg·mL
- Weight based MIC [6]: >2500 µg·mL
